Experimental findings from US4048161A, “7-[α-(Benzimidazol-2-ylcarbonylamino)-arylacetamido]ephalosporins” (Eli Lilly and Company, priority 1976, dated 1977) are described below.

Each structure is given as a SMILES string. Converted amounts (≈) assume the structure as drawn.

Holding throughout (assay type): cell-based
Test [1] relates to Serratia marcescens. Kind of test: Gradient plate in vitro antibiotic activity (MIC), Serratia marcescens. As to conditions: read-out: Minimum Inhibitory Concentration. An excerpt: (§1) The values in the Table are the minimum inhibitory concentrations (MIC) for the test compounds against the indicated microorganisms. The MIC values were obtained using the gradient plate in vitro method for determining antibiotic activity.

Test [2] concerns X400 methicillin resistant Staphylococcus. Kind of test: Gradient plate in vitro antibiotic activity (MIC), X400 methicillin resistant Staphylococcus. As to conditions: read-out: Minimum Inhibitory Concentration. An excerpt:
(§2) The antibiotic activity of the cephalosporin compounds of this invention is illustrated by the data provided in the following Table of representative compounds. The values in the Table are the minimum inhibitory concentrations (MIC) for the test compounds against the indicated microorganisms. The MIC values were obtained using the gradient plate in vitro method for determining antibiotic activity.
resistant Staphylococcus. X-400 is a methicillin
resistant Staphylococcus.

Test [3] deals with V84 penicillin resistant Staphylococcus. Kind of test: Gradient plate in vitro antibiotic activity (MIC), V84 penicillin resistant Staphylococcus. Conditions: read-out: Minimum Inhibitory Concentration.
Description: as §2
(§3) 1. Test organisms V41, V32, and V84 are penicillin

Test [4] deals with Pseudomonas aeruginosa. Kind of test: Gradient plate in vitro antibiotic activity (MIC), Pseudomonas aeruginosa. Conditions: read-out: Minimum Inhibitory Concentration.
Description: as §1

Test [5] relates to V32 penicillin resistant Staphylococcus. Kind of test: Gradient plate in vitro antibiotic activity (MIC), V32 penicillin resistant Staphylococcus. As to conditions: read-out: Minimum Inhibitory Concentration.
Description: as §2, §3

Test [6] has as its system Salmonella heidelberg. Kind of test: Gradient plate in vitro antibiotic activity (MIC), Salmonella heidelberg. As to conditions: Salmonella enterica, read-out: Minimum Inhibitory Concentration.
Description: as §1

For test [7], the system named is Escherichia coli. Kind of test: Gradient plate in vitro antibiotic activity (MIC), Escherichia coli. Conditions: read-out: Minimum Inhibitory Concentration.
Description: as §1

For test [8], the system named is V41 penicillin resistant Staphylococcus. Kind of test: Gradient plate in vitro antibiotic activity (MIC), V41 penicillin resistant Staphylococcus. As to conditions: read-out: Minimum Inhibitory Concentration.
Description: as §2, §3

The subject of test [9] is Aerobacter aerogenes. Kind of test: Gradient plate in vitro antibiotic activity (MIC), Aerobacter aerogenes. Conditions: Klebsiella aerogenes, read-out: Minimum Inhibitory Concentration.
Description: as §2

Test [10] concerns Klebsiella pneumoniae. Kind of test: Gradient plate in vitro antibiotic activity (MIC), Klebsiella pneumoniae. Conditions: read-out: Minimum Inhibitory Concentration.
Description: as §1

In test [11] the test system is Shigella sp. Kind of test: Gradient plate in vitro antibiotic activity (MIC), Shigella sp. As to conditions: read-out: Minimum Inhibitory Concentration.
Description: as §2

With `Cn1c(SCC2=C(C(=O)O)N3C(=O)C(NC(=O)C(NC(=O)c4nc5ccccc5[nH]4)c4ccc(O)cc4)C3SC2)nnc(O)c1=O` (centres unmarked) [G], the MIC in test [1] is 41 µg/mL (≈ 61.7 µM); in test [2], greater than 200 µg/mL; in test [3], 0.8 µg/mL (≈ 1.2 µM); in test [4], 60 µg/mL (≈ 90.3 µM); in test [5] it was 1.8 µg/mL (≈ 2.71 µM); in [6], 8.5 µg/mL (≈ 12.8 µM). The MIC in [7] is 11 µg/mL (≈ 16.5 µM); in test [8], 0.8 µg/mL (≈ 1.2 µM); in [9], 19.2 µg/mL (≈ 28.9 µM); in [10], 1 µg/mL (≈ 1.5 µM); in test [11], 6.7 µg/mL (≈ 10.1 µM).
As for `CC(=O)OCC1=C(C(=O)O)N2C(=O)C(NC(=O)C(NC(=O)c3nc4ccccc4[nH]3)c3ccccc3)C2SC1` (centres unmarked) [A], the MIC in [1] is 100 µg/mL (≈ 182 µM); in test [2], greater than 20 µg/mL; in test [3], 0.6 µg/mL (≈ 1.09 µM); in [4], 25 µg/mL (≈ 45.5 µM); in [5], 5 µg/mL (≈ 9.1 µM); in [6], 22 µg/mL (≈ 40 µM). The MIC came to 26.5 µg/mL (≈ 48.2 µM) in [7]; 4 µg/mL (≈ 7.28 µM) in test [8]; 18.3 µg/mL (≈ 33.3 µM) in test [9]; 18.5 µg/mL (≈ 33.7 µM) in [10]; 15 µg/mL (≈ 27.3 µM) in test [11].
In the case of `Cn1nnnc1SCC1=C(C(=O)O)N2C(=O)C(NC(=O)C(NC(=O)c3nc4ccccc4[nH]3)c3ccc(O)cc3)C2SC1` (centres unmarked) [C], the MIC in test [1] amounted to 20.7 µg/mL (≈ 33.3 µM); in test [2], 60 µg/mL (≈ 96.5 µM); in test [3] it was 0.8 µg/mL (≈ 1.29 µM); in [4] it was 10.5 µg/mL (≈ 16.9 µM); in test [5] it was 0.9 µg/mL (≈ 1.45 µM); in test [6], 8 µg/mL (≈ 12.9 µM). The MIC stood at 7.5 µg/mL (≈ 12.1 µM) in test [7]; 0.9 µg/mL (≈ 1.45 µM) in test [8]; 13 µg/mL (≈ 20.9 µM) in [9]; 0.9 µg/mL (≈ 1.45 µM) in test [10]; 5.5 µg/mL (≈ 8.85 µM) in test [11].
As for `Cn1nnnc1SCC1=C(C(=O)O)N2C(=O)C(NC(=O)C(NC(=O)c3nc4ccccc4[nH]3)c3ccccc3)C2SC1` (centres unmarked) [B], the MIC is 21.5 µg/mL (≈ 35.5 µM) in [1]; greater than 20 µg/mL in test [2]; 0.7 µg/mL (≈ 1.16 µM) in [3]; 22 µg/mL (≈ 36.3 µM) in test [4]; 7 µg/mL (≈ 11.6 µM) in test [5]; 6.5 µg/mL (≈ 10.7 µM) in test [6]. Further, the MIC in test [7] came to 18.5 µg/mL (≈ 30.5 µM); in [8], 5 µg/mL (≈ 8.26 µM); in test [9], 8.5 µg/mL (≈ 14 µM); in test [10], 5 µg/mL (≈ 8.26 µM); in test [11], 5 µg/mL (≈ 8.26 µM).
Consider `Cc1nnc(SCC2=C(C(=O)O)N3C(=O)C(NC(=O)C(NC(=O)c4nc5ccccc5[nH]4)c4ccc(O)cc4)C3SC2)s1` (centres unmarked) [E], for which the MIC in test [1] was determined as 70 µg/mL (≈ 110 µM); in test [2], 100 µg/mL (≈ 157 µM); in [3], 1 µg/mL (≈ 1.57 µM); in test [4], 18.5 µg/mL (≈ 29 µM); in test [5] it was 5 µg/mL (≈ 7.84 µM); in [6] it was 16 µg/mL (≈ 25.1 µM). The MIC in test [7] stood at 16 µg/mL (≈ 25.1 µM); in test [8] it was 4 µg/mL (≈ 6.27 µM); in test [9], 21.5 µg/mL (≈ 33.7 µM); in [10], 4.5 µg/mL (≈ 7.06 µM); in [11], 10 µg/mL (≈ 15.7 µM).
For the compound `Cn1nnnc1SCC1=C(C(=O)O)N2C(=O)C(NC(=O)C(NC(=O)c3nc4ccccc4[nH]3)c3cccs3)C2SC1` (centres unmarked) [D], the MIC in [1] stood at 14.8 µg/mL (≈ 24.2 µM); in [2] it was 19.5 µg/mL (≈ 31.9 µM); in test [3], 0.5 µg/mL (≈ 0.817 µM); in test [4] it was 14.8 µg/mL (≈ 24.2 µM); in [5], 0.6 µg/mL (≈ 0.981 µM); in test [6], 7.5 µg/mL (≈ 12.3 µM). Besides, the MIC in [7] was 7 µg/mL (≈ 11.4 µM); in test [8], 0.6 µg/mL (≈ 0.981 µM); in [9] it was 10 µg/mL (≈ 16.3 µM); in [10], 0.6 µg/mL (≈ 0.981 µM); in [11], 4 µg/mL (≈ 6.54 µM).
Regarding `NC(=O)OCC1=C(C(=O)O)N2C(=O)C(NC(=O)C(NC(=O)c3nc4ccccc4[nH]3)c3ccc(O)cc3)C2SC1` (centres unmarked) [F], the MIC in [1] was greater than 200 µg/mL; in test [2], 120 µg/mL (≈ 212 µM); in test [3], 0.8 µg/mL (≈ 1.41 µM); in test [4], 19.5 µg/mL (≈ 34.4 µM); in test [5], 0.9 µg/mL (≈ 1.59 µM); in [6], 19.5 µg/mL (≈ 34.4 µM). Also, the MIC was determined as 55 µg/mL (≈ 97.1 µM) in test [7]; 0.9 µg/mL (≈ 1.59 µM) in test [8]; 55 µg/mL (≈ 97.1 µM) in test [9]; 10 µg/mL (≈ 17.7 µM) in test [10]; 19.5 µg/mL (≈ 34.4 µM) in [11].
